From ChEMBL document CHEMBL1158318, “Two 5-HT 1A Receptor-Interactive Tryptamine Derivatives from the Unripe Fruit of Evodia rutaecarpa” (J Nat Prod, 1997)
pKi: −log10 of the molar value.

Biological target: T1, 5-hydroxytryptamine receptor 1A (Homo sapiens, UniProt P08908)
T1 sequence (P08908 whole entry): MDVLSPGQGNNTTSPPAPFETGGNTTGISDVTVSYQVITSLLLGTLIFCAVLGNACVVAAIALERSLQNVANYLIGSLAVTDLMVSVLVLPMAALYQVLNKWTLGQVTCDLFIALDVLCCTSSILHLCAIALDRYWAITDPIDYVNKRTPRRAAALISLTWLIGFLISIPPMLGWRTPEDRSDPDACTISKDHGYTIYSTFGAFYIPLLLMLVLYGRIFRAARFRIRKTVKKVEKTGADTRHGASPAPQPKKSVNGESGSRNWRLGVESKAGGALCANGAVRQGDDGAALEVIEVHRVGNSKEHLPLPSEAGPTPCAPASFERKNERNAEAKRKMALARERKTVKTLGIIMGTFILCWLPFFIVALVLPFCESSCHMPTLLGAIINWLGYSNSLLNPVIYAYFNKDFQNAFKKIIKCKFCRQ
Assay: Displacement of [3H]8-OH-DPAT from 5HT1A receptor by vacuum filtration

pKi | Structure (SMILES)
< 4.00 | COc1cc(-c2oc3cc(O)cc(O)c3c(=O)c2O[C@@H]2O[C@H](CO)[C@H](O)[C@H](O)[C@H]2O)ccc1O
4.44 | C[n+]1c2n(c(=O)c3ccccc31)CCc1c-2[nH]c2ccccc12 [DEHYDROEVODIAMINE]
< 4.00 | CN1c2ccccc2C(=O)N2CCc3c([nH]c4ccccc34)[C@H]21 [EVODIAMINE]
< 4.00 | O=c1c(O[C@@H]2O[C@H](CO)[C@H](O)[C@H](O)[C@H]2O)c(-c2ccc(O)c(O)c2)oc2cc(O)cc(O)c12 [HYPEROSIDE]
< 4.00 | CC1(C)O[C@H]2CC(=O)OC[C@]23[C@H]2CC[C@@]4(C)[C@H](c5ccoc5)OC(=O)[C@H]5O[C@]54[C@]2(C)C(=O)C[C@@H]13 [LIMONIN]
4.49 | CNc1ccccc1C(=O)N1CCc2c([nH]c3ccccc23)C1=O [RHETSININE]
< 4.00 | O=c1c2ccccc2nc2n1CCc1c-2[nH]c2ccccc12 [RUTAECARPINE]

Structure (SMILES) | pKi
CNCC(O)c1ccc(O)cc1 (stereo not drawn) [OXEDRINE] | 4.20
